Results on 16 molecules are retold here after patent US20260035382A1, “COMPOUNDS AS SUMO ACTIVATING ENZYME INHIBITORS” (WIGEN BIOMEDICINE TECHNOLOGY (SHANGHAI) CO., LTD., priority 2022, published 2026).

Read-outs that look alike come from different tables or passages of the source.

Usually IC50 stands for the concentration needed to halve the response being measured. By clearance is commonly meant a measure of how efficiently the substance is removed, as volume per time. High values mean a high capacity for elimination, low ones a low capacity for elimination. Broadly, the half-life is the time in which the quantity being followed falls by half. Lower therefore signals rapid decline. For orientation: Cmax means the maximum level reached in the sampled fluid or tissue.

The target of series [1] is SAE (Homo sapiens (Human), UniProt Q9UBT2). Nature of the series: In vitro inhibitory activity assay against SAE (SUMO-2/3 immunofluorescence in HCT116 cells). The series is classed as cell-based. As to conditions: 6 h incubation, read-out: SUMO IF IC50. The gist of the method:
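HCT116 cells treated with compounds for 6 h at 37 °C, then fixed, permeabilized and immunostained for SUMO-2/3 with FITC secondary detection. Fluorescence compared with DMSO control to give inhibition rate and IC50.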

Series [2] is described as follows: In vivo pharmacokinetic experiment, intravenous administration. The settings on record: CD-1 female mice, 2 mpk; for Plasma AUClast: plasma (Table 5); for C0 / clearance / half-life / AUC(0-t) / Cmax / Vd: mouse, 2 mg/kg; for Vd: read-out: Vdss. As for the experimental part: CD-1 female mice aged 6 to 8 weeks were intravenously administered at a dose of 2 mg/kg. The mice were fasted for at least 12 h before the administration and given food after the administration, and they were given ad libitum access to water during the experiment. On the day of the experiment, animals in the intravenous group were administered the corresponding compound by single injection via the tail vein at an administration volume of 0.2 mL/animal. The sample collection time was 0.083 h, 0.167 h, 0.5 h, 1 h, 2 h, 4 h, 8 h, and 24 h. About 150 μL of whole blood was collected through the submaxillary venous plexus at each time point (30 μL of whole blood was diluted with ultrapure water at a ratio of 1:3, and 120 μL of whole blood was centrifuged to obtain plasma) and used for concentration determination by high-performance liquid chromatography-tandem mass spectrometry (LC-MS/MS). All animals were sacrificed after the PK samples were collected at the last time point. The plasma concentration was processed using a non-compartmental model of Phoenix WinNonlin™ version 8.3 (Certara) pharmacokinetic software, and the pharmacokinetic parameters were calculated using a linear-log trapezoidal method.

Where [3] appears, read: whole blood, read-out: Whole blood AUClast.
The mark [4] stands for this setting: whole blood, read-out: Whole blood Cmax.

Chain of SAE (Q9UBT2 whole entry): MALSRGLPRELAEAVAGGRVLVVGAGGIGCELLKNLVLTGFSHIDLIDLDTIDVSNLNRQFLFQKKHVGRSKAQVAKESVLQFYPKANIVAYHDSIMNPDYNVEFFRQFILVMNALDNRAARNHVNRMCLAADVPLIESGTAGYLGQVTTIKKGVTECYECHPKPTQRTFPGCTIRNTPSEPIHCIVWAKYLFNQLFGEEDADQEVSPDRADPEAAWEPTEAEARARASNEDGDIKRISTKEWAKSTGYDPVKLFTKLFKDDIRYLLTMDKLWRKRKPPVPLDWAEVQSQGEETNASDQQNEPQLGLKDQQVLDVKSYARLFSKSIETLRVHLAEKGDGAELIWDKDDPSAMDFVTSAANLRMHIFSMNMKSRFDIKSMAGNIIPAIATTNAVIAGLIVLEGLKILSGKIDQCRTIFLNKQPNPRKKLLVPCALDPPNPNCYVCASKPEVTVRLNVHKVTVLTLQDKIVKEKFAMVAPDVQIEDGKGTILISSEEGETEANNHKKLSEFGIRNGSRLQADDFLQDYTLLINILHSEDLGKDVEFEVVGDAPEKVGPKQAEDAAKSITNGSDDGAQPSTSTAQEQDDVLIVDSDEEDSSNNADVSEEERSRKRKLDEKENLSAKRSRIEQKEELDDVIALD
Chain of SAE (Q9UBE0 whole entry partner): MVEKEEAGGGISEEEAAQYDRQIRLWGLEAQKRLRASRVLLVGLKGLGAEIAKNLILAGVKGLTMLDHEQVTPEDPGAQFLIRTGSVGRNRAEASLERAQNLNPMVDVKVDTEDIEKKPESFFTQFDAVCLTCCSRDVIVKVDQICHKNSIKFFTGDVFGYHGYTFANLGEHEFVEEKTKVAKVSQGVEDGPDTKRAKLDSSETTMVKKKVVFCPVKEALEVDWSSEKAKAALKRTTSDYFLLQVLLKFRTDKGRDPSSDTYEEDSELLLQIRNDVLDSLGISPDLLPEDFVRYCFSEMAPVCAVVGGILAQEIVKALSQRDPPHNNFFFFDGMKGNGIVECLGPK

As for `NS(=O)(=O)OC[C@H]1C[C@@H](Nc2ncncc2C(=O)c2cc3c(s2)CCC[C@]32NCCc3ccc(Cl)cc32)C[C@@H]1O` [Compound 6], the IC50 in series [1] (numeric values) was 27.8 nM. Also, in series [2], the “Whole blood AUClast/plasma AUClast ratio” value is recorded as 39.0, the “Whole blood Cmax/plasma Cmax ratio” value is reported as 19.7 and the “Plasma AUClast” value was determined as 881 ng·h/mL. In addition, in series [2] (plasma), the C0 worked out at 1080 ng/mL, the clearance was 36.9 mL/min/kg, the half-life is 1.45 h and the Vd came to 3.5 L/kg. In addition, the AUC(0-t) in series [2] (plasma, read-out: AUClast) stood at 881 ng·h/mL. In addition, in series [2] (plasma, read-out: Cmax), the Cmax is 798 ng/mL. For the same molecule, the AUC(0-t) in series [2] (setting [3]) was found to be 34400 ng·h/mL. Besides, the Cmax in series [2] (setting [4]) was 15800 ng/mL.
As for `NS(=O)(=O)OC[C@H]1C[C@@H](Nc2ncncc2C(=O)c2cc3c(s2)CCC[C@]32NCCc3ccc(F)cc32)C[C@@H]1O` [Compound 9], in series [1] (numeric values), the half-inhibitory concentration (IC50) came to 36 nM. Also, in series [2], the “Whole blood AUClast/plasma AUClast ratio” value is 32.7, the “Whole blood Cmax/plasma Cmax ratio” value is 23.9 and the “Plasma AUClast” value turned out to be 580 ng·h/mL. In series [2] (plasma), the C0 amounted to 730 ng/mL, the clearance stood at 56.9 mL/min/kg, the half-life was 1.31 h and the Vd stood at 3.91 L/kg. In addition, the AUC(0-t) in series [2] (plasma, read-out: AUClast) worked out at 580 ng·h/mL. Further, the peak concentration (Cmax) in series [2] (plasma, read-out: Cmax) stood at 597 ng/mL. The AUC(0-t) in series [2] (setting [3]) was found to be 19000 ng·h/mL. In series [2] (setting [4]), the maximum concentration (Cmax) came out at 14300 ng/mL.
In the case of `NS(=O)(=O)OC[C@H]1C[C@@H](Nc2ncncc2C(=O)c2cc3c(s2)COC[C@]32NCCc3ccc(Cl)cc32)C[C@@H]1O` [Compound 21], the IC50 in series [1] (numeric values) amounted to 87.5 nM. In series [2], the “Whole blood AUClast/plasma AUClast ratio” value was 45.9, the “Whole blood Cmax/plasma Cmax ratio” value was determined as 17.5 and the “Plasma AUClast” value came out at 1479 ng·h/mL. Besides, in series [2] (plasma), the C0 was 1610 ng/mL, the clearance came out at 21.1 mL/min/kg, the half-life is 2.17 h and the Vd turned out to be 3.03 L/kg. Further, the AUC(0-t) in series [2] (plasma, read-out: AUClast) is 1480 ng·h/mL. In series [2] (plasma, read-out: Cmax), the Cmax stood at 1150 ng/mL. Also, the AUC(0-t) in series [2] (setting [3]) was found to be 67900 ng·h/mL. Besides, the Cmax in series [2] (setting [4]) was 20200 ng/mL.
Take `NS(=O)(=O)OC[C@H]1C[C@@H](Nc2ncncc2C(=O)c2cc3c(s2)CC[C@]32NCCc3ccc(Cl)cc32)C[C@@H]1O` [Compound 48]: the IC50 in series [1] (numeric values) turned out to be 41 nM. Moreover, in series [2] (plasma), the C0 is 839 ng/mL, the clearance came to 44 mL/min/kg, the half-life was 1.32 h and the Vd stood at 3.43 L/kg. Further, in series [2] (plasma, read-out: AUClast), the AUC(0-t) was 749 ng·h/mL. Besides, the Cmax in series [2] (plasma, read-out: Cmax) worked out at 719 ng/mL.
Regarding `NS(=O)(=O)OC[C@H]1C[C@@H](Nc2ncncc2C(=O)c2cc3c(s2)C=C[C@@]32OCCc3ccccc32)C[C@@H]1O` [Compound 290], the IC50 in series [1] (class symbols) is above 200 nM.
The same measure, in the same setting: to `NS(=O)(=O)OC[C@H]1C[C@@H](Nc2ncncc2C(=O)c2cc3c(s2)C=C[C@]32OCCc3ccccc32)C[C@@H]1O` [Compound 291] belongs 50 to 200 nM.
Regarding `NS(=O)(=O)OC[C@H]1C[C@@H](Nc2ncncc2C(=O)c2cc3c(s2)C=CC32OCCc3ccc(F)cc32)C[C@@H]1O` (stereo partly shown) [Compound 292], the IC50 in series [1] (class symbols) lay in the range of 50 to 200 nM.
The same measure, in the same setting: to `NS(=O)(=O)OC[C@H]1C[C@@H](Nc2ncncc2C(=O)c2cc3c(s2)C=C[C@@]32OCCc3ccc(F)cc32)C[C@@H]1O` [Compound 293] belongs above 200 nM.
Consider `NS(=O)(=O)OC[C@H]1C[C@@H](Nc2ncncc2C(=O)c2cc3c(s2)C=C[C@]32OCCc3ccc(F)cc32)C[C@@H]1O` [Compound 294], for which, in series [1] (class symbols), the IC50 was at most 50 nM.
On the same count and under the same terms, to `NS(=O)(=O)OC[C@H]1C[C@@H](Nc2ncncc2C(=O)c2cc3c(s2)C=CC32OCCc3ccc(Cl)cc32)C[C@@H]1O` (stereo partly shown) [Compound 295] belongs at most 50 nM.
On the same count and under the same terms, then `NS(=O)(=O)OC[C@H]1C[C@@H](Nc2ncncc2C(=O)c2cc3c(s2)C=C[C@@]32OCCc3ccc(Cl)cc32)C[C@@H]1O` [Compound 296], with above 200 nM; and `NS(=O)(=O)OC[C@H]1C[C@@H](Nc2ncncc2C(=O)c2cc3c(s2)C=C[C@]32OCCc3ccc(Cl)cc32)C[C@@H]1O` [Compound 297], with at most 50 nM; and `N#Cc1ccc2c(c1)C1(C=Cc3sc(C(=O)c4cncnc4N[C@@H]4C[C@H](COS(N)(=O)=O)[C@@H](O)C4)cc31)OCC2` (stereo partly shown) [Compound 298], with 50 to 200 nM.
On to `N#Cc1ccc2c(c1)[C@]1(C=Cc3sc(C(=O)c4cncnc4N[C@@H]4C[C@H](COS(N)(=O)=O)[C@@H](O)C4)cc31)OCC2` [Compound 299], for which the IC50 in series [1] (class symbols) was above 200 nM.
On the same count and under the same terms, to `N#Cc1ccc2c(c1)[C@@]1(C=Cc3sc(C(=O)c4cncnc4N[C@@H]4C[C@H](COS(N)(=O)=O)[C@@H](O)C4)cc31)OCC2` [Compound 300] belongs at most 50 nM.
Regarding `Cc1sc(C(=O)c2cncnc2N[C@@H]2C[C@H](COS(N)(=O)=O)[C@@H](O)C2)cc1[C@@H]1NCCc2ccc(Cl)cc21` [TAK-981, reference compound], the IC50 in series [1] (numeric values) turned out to be 53.2 nM.
